13 compounds from ChEMBL document CHEMBL1201862, “PubChem BioAssay data set” (2004) can be followed below.

SMILES strings stand for the structures.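 Test compounds were applied to cells in 96-well plates for 48 hours at 5 doses. GI50 marks 50% less growth.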 The source made the active and inactive calls. No stated cut-off is given here; in the data, active = GI50 up to about 1.1 µM and inactive = higher.

Among the test systems are HCC 2998; HOP-18; HOP-92; MCF7; Malme-3M; NCI-H226; NCI/ADR-RES; RPMI-8226; RXF 393; SK-OV-3; XF498; ACHN; TK-10.
What all share (experiment): NCI-60 cell line screen, 48 h

As for `C=C/C(C)=C/[C@H](C)C(=O)C[C@H](O)CC1CC(=O)NC(=O)C1`, the GI50 with HCC 2998 is 20.2 µM (inactive); in the assay on HOP-18, 19 µM (inactive); in the assay with HOP-92 it was 21.7 µM (inactive); in the assay on MCF7, 27.5 µM (inactive); with Malme-3M, 16 µM (inactive); with NCI-H226, 41 µM (inactive). In addition, the GI50 in the assay with NCI/ADR-RES was 57.4 µM (inactive); in the assay with RPMI-8226 it was 31.8 µM (inactive); with RXF 393, 38.5 µM (inactive); in the assay on SK-OV-3 it was > 41.9 µM (inactive); with XF498, 2.86 µM (inactive).
In the case of `N/C(=N\O)N/N=C\c1cc([N+](=O)[O-])cc([N+](=O)[O-])c1O`, the GI50 with HCC 2998 was 14.5 µM (inactive); in the assay with HOP-18, > 100 µM (inactive); in the assay with HOP-92, > 100 µM (inactive); with MCF7 it was 19.1 µM (inactive); in the assay with Malme-3M it was > 100 µM (inactive); in the assay on NCI-H226, 29.4 µM (inactive). The GI50 is > 26 µM (inactive) in the assay on NCI/ADR-RES; 16.5 µM (inactive) with RPMI-8226; > 100 µM (inactive) in the assay with RXF 393; 25.5 µM (inactive) with SK-OV-3; 40.8 µM (inactive) with XF498.
As to `Cc1c(N=NN(C)C)cc[n+]([O-])c1C`, the GI50 with HCC 2998, with HOP-18, in the assay with HOP-92, in the assay with MCF7, with Malme-3M and with NCI-H226 was > 100 µM (inactive) each time. The GI50 with NCI/ADR-RES, in the assay on RPMI-8226, with RXF 393, with SK-OV-3 and in the assay with XF498 was > 100 µM (inactive) each time.
For the compound `O=C(O)c1ccccc1C(=O)c1ccco1`, the GI50 in the assay on ACHN, with HCC 2998, with HOP-18, with HOP-92, in the assay on Malme-3M and in the assay with NCI-H226 was > 100 µM (inactive) in each case. Also, the GI50 with RXF 393, with TK-10 and in the assay with XF498 was > 100 µM (inactive) each time.
`COc1cc(C2c3cc4c(cc3[C@@H](Nc3cccc(C(C)=O)c3)C3COC(=O)[C@H]23)OCO4)cc(OC)c1O` (stereo partly drawn): the GI50 is 1.34 µM (inactive) in the assay on HCC 2998; 1 µM (active) with HOP-18; 0.478 µM (active) in the assay on HOP-92; 0.0785 µM (active) in the assay on MCF7; 1.28 µM (inactive) with Malme-3M; 0.236 µM (active) with NCI-H226. Also, the GI50 in the assay on NCI/ADR-RES was 0.383 µM (active); with RPMI-8226, 0.197 µM (active); in the assay with RXF 393 it was 0.762 µM (active); in the assay with SK-OV-3 it was 0.71 µM (active); with XF498 it was 0.573 µM (active).
Consider `COc1ccc(Sc2ccccc2N)cc1`, for which the GI50 in the assay with ACHN was 56.8 µM (inactive); with HCC 2998, 41 µM (inactive); in the assay on HOP-18, > 100 µM (inactive); in the assay on HOP-92, 21.1 µM (inactive); with Malme-3M, 57.8 µM (inactive); with NCI-H226, 22.7 µM (inactive). Also, the GI50 is 45.9 µM (inactive) with RPMI-8226; 25.5 µM (inactive) in the assay with RXF 393; > 100 µM (inactive) with SK-OV-3; > 100 µM (inactive) in the assay with TK-10; 0.162 µM (active) in the assay with XF498.
`COc1ccc2cc1Oc1ccc(cc1)C[C@H]1c3cc(c(OC)cc3CCN1C)Oc1c(O)c(OC)cc3c1[C@H](C2)N(C)CC3` [FANGCHINOLINE]: the GI50 was 17.6 µM (inactive) in the assay with HCC 2998; 32.2 µM (inactive) with HOP-18; 7.64 µM (inactive) in the assay with HOP-92; 26.6 µM (inactive) in the assay on MCF7; 30.7 µM (inactive) in the assay on Malme-3M; 39.9 µM (inactive) in the assay on NCI-H226. Besides, the GI50 in the assay with NCI/ADR-RES was 29.4 µM (inactive); with RPMI-8226, 8.91 µM (inactive); in the assay with RXF 393 it was 16.5 µM (inactive); in the assay with SK-OV-3, 28.4 µM (inactive); in the assay on XF498, 27.4 µM (inactive).
As to `C/C([O-])=C(/c1nc(-c2ccc([N+](=O)[O-])o2)no1)[n+]1cc(C)ccc1C`, the GI50 was 13 µM (inactive) in the assay on HCC 2998; 10.2 µM (inactive) with HOP-18; > 100 µM (inactive) with HOP-92; 4.02 µM (inactive) with MCF7; 14.3 µM (inactive) with Malme-3M; 15.7 µM (inactive) in the assay on NCI-H226. For the same compound, the GI50 in the assay with NCI/ADR-RES was 35 µM (inactive); with RPMI-8226 it was 15.3 µM (inactive); in the assay on RXF 393, 18.7 µM (inactive); in the assay on SK-OV-3, 35.6 µM (inactive); with XF498, 7.48 µM (inactive).
Regarding `COc1cc(C2c3cc4c(cc3[C@@H](Nc3ccc(N5CCOCC5)cc3)C3COC(=O)[C@H]23)OCO4)cc(OC)c1O` (stereo partly drawn), the GI50 with HCC 2998 was 1.99 µM (inactive); in the assay with HOP-18 it was 0.977 µM (active); with HOP-92 it was 0.773 µM (active); in the assay on MCF7 it was 0.177 µM (active); in the assay with Malme-3M, 1.89 µM (inactive); in the assay on NCI-H226 it was 0.773 µM (active). Further, the GI50 in the assay on NCI/ADR-RES is 3.96 µM (inactive); in the assay on RPMI-8226, 0.223 µM (active); in the assay on RXF 393, 2.3 µM (inactive); with SK-OV-3 it was 0.738 µM (active); in the assay on XF498, 0.392 µM (active).
`C#CC[C@@]12CC(=O)C[C@@H]1CCC1(C2)OCCO1.C#CC[C@]12CC(=O)CC[C@H]1CC(=O)C2`: the GI50 in the assay with HCC 2998 was > 100 µM (inactive); in the assay on HOP-18 it was 90.6 µM (inactive); with HOP-92, > 100 µM (inactive); with MCF7 it was > 100 µM (inactive); in the assay with Malme-3M, > 100 µM (inactive); in the assay with NCI-H226 it was > 100 µM (inactive). The GI50 in the assay on NCI/ADR-RES, in the assay on RPMI-8226, in the assay with RXF 393, in the assay with SK-OV-3 and with XF498 was > 100 µM (inactive) throughout.
Regarding `NC(=O)C1(c2ccccc2)Nc2ccccc2S1` (stereo not drawn), the GI50 in the assay with ACHN, in the assay with HCC 2998, with HOP-18, in the assay on Malme-3M, in the assay on NCI-H226 and with RPMI-8226 was > 100 µM (inactive) in each case. For the same compound, the GI50 with RXF 393, in the assay with SK-OV-3, in the assay on TK-10 and with XF498 was > 100 µM (inactive) throughout.
Turning to `CCCCOP1(=O)C=CC(Cl)=C(C)C1` (stereo not drawn), the GI50 in the assay with ACHN is 19 µM (inactive); in the assay on HCC 2998, > 10 µM (inactive); in the assay on HOP-18, 44.5 µM (inactive); in the assay with HOP-92, 23.2 µM (inactive); in the assay with Malme-3M, 19.5 µM (inactive); in the assay on NCI-H226 it was 21.4 µM (inactive). In addition, the GI50 in the assay on RPMI-8226 was 22.3 µM (inactive); with TK-10, 36.6 µM (inactive); with XF498, 19.2 µM (inactive).
In the case of `Nc1nnc(N)n1NC(=O)C(=O)Nc1ccc([N+](=O)[O-])cc1`, the GI50 in the assay with ACHN, in the assay on HCC 2998, in the assay with HOP-18, in the assay with HOP-92, in the assay with Malme-3M and in the assay with NCI-H226 was > 100 µM (inactive) in each case. The GI50 with RPMI-8226, in the assay with RXF 393, in the assay with SK-OV-3, in the assay on TK-10 and in the assay on XF498 was > 100 µM (inactive) in each case.
